According to US20260013501A1, “HERBICIDAL DERIVATIVES” (SYNGENTA CROP PROTECTION AG, priority 2022, published 2026):

Experiments:
Assay type in all cases: in vivo
Settings in all cases: evaluated after 13 days
[1] = system: Ipomoea hederacea (IPOHE); assay: Pre-emergence Test (Table B1), IPOHE
[2] = system: Echinochloa crus-galli (ECHCG); assay: Pre-emergence Test (Table B1), ECHCG
[3] = system: Amaranthus retoflexus (AMARE); assay: Pre-emergence Test (Table B1), AMARE
Setaria faberi (SETFA) = assay: Pre-emergence Test (Table B1), SETFA
Zea mays (ZEAMX) = assay: Pre-emergence Test (Table B1), ZEAMX
[4] = system: Amaranthus palmeri (AMAPA); assay: Pre-emergence Test (Table B1), AMAPA

CCn1c(Cc2ccc(Cl)cc2)cc(=O)c(C(=O)O)c1-c1ccc(Cl)c(Cl)c1 [Compound 7, 6-[(4-chlorophenyl)methyl]-2-(3,4-dichlorophenyl)-1-ethyl-4-oxo-pyridine-3-carboxylic acid]
0: Pre-emergence Test, percentage damage caused to the plant (five-point scale), IPOHE ([1]; Rate 1000 g/Ha) | Pre-emergence Test, percentage damage caused to the plant (five-point scale), ECHCG ([2]; Rate 1000 g/Ha) | Pre-emergence Test, percentage damage caused to the plant (five-point scale), AMARE ([3]; Rate 1000 g/Ha) | Pre-emergence Test, percentage damage caused to the plant (five-point scale), SETFA (Setaria faberi (SETFA); Rate 1000 g/Ha) | Pre-emergence Test, percentage damage caused to the plant (five-point scale), ZEAMX (Zea mays (ZEAMX); Rate 1000 g/Ha)

CCn1c(Cc2cccc(OC)n2)cc(=O)c(C(=O)O)c1-c1ccc(Cl)c(Cl)c1 [Compound 60, 2-(3,4-dichlorophenyl)-1-ethyl-6-[(6-methoxy-2-pyridyl)methyl]-4-oxo-pyridine-3-carboxylic acid]
0: Pre-emergence Test, percentage damage caused to the plant (five-point scale), SETFA (Setaria faberi (SETFA); Rate 250 g/Ha) | Pre-emergence Test, percentage damage caused to the plant (five-point scale), ZEAMX (Zea mays (ZEAMX); Rate 250 g/Ha)

CCn1c(Cc2ccc(Cl)cc2F)cc(=O)c(C(=O)O)c1-c1ccc(Cl)c(Cl)c1 [Compound 79, 6-[(4-chloro-2-fluoro-phenyl)methyl]-2-(3,4-dichlorophenyl)-1-ethyl-4-oxo-pyridine-3-carboxylic acid]
0: Pre-emergence Test, percentage damage caused to the plant (five-point scale), AMAPA ([4]; Rate 1000 g/Ha) | Pre-emergence Test, percentage damage caused to the plant (five-point scale), IPOHE ([1]; Rate 1000 g/Ha) | Pre-emergence Test, percentage damage caused to the plant (five-point scale), ECHCG ([2]; Rate 1000 g/Ha) | Pre-emergence Test, percentage damage caused to the plant (five-point scale), AMARE ([3]; Rate 1000 g/Ha) | Pre-emergence Test, percentage damage caused to the plant (five-point scale), SETFA (Setaria faberi (SETFA); Rate 1000 g/Ha) | Pre-emergence Test, percentage damage caused to the plant (five-point scale), ZEAMX (Zea mays (ZEAMX); Rate 1000 g/Ha)

CCn1c(Cc2ccn[nH]c2=O)cc(=O)c(C(=O)O)c1-c1ccc(Cl)c(Cl)c1 [Compound 142, 2-(3,4-dichlorophenyl)-1-ethyl-4-oxo-6-[(6-oxo-1H-pyridazin-5-yl)methyl]pyridine-3-carboxylic acid]
0: Pre-emergence Test, percentage damage caused to the plant (five-point scale), ECHCG ([2]; Rate 250 g/Ha) | Pre-emergence Test, percentage damage caused to the plant (five-point scale), SETFA (Setaria faberi (SETFA); Rate 250 g/Ha) | Pre-emergence Test, percentage damage caused to the plant (five-point scale), ZEAMX (Zea mays (ZEAMX); Rate 250 g/Ha)

CCn1c(Cc2nccnc2Cl)cc(=O)c(C(=O)O)c1-c1ccc(Cl)c(Cl)c1 [Compound 144, 6-[(3-chloropyrazin-2-yl)methyl]-2-(3,4-dichlorophenyl)-1-ethyl-4-oxo-pyridine-3-carboxylic acid]
0: Pre-emergence Test, percentage damage caused to the plant (five-point scale), AMAPA ([4]; Rate 250 g/Ha) | Pre-emergence Test, percentage damage caused to the plant (five-point scale), IPOHE ([1]; Rate 250 g/Ha) | Pre-emergence Test, percentage damage caused to the plant (five-point scale), ECHCG ([2]; Rate 250 g/Ha) | Pre-emergence Test, percentage damage caused to the plant (five-point scale), SETFA (Setaria faberi (SETFA); Rate 250 g/Ha) | Pre-emergence Test, percentage damage caused to the plant (five-point scale), ZEAMX (Zea mays (ZEAMX); Rate 250 g/Ha)

CCn1c(Cc2cnc3ccccc3n2)cc(=O)c(C(=O)O)c1-c1ccc(Cl)c(Cl)c1 [Compound 145, 2-(3,4-dichlorophenyl)-1-ethyl-4-oxo-6-(quinoxalin-2-ylmethyl)pyridine-3-carboxylic acid]
0: Pre-emergence Test, percentage damage caused to the plant (five-point scale), IPOHE ([1]; Rate 250 g/Ha) | Pre-emergence Test, percentage damage caused to the plant (five-point scale), AMARE ([3]; Rate 250 g/Ha) | Pre-emergence Test, percentage damage caused to the plant (five-point scale), SETFA (Setaria faberi (SETFA); Rate 250 g/Ha) | Pre-emergence Test, percentage damage caused to the plant (five-point scale), ZEAMX (Zea mays (ZEAMX); Rate 250 g/Ha)
